Laboratory results from patent US20220242851A1, “CRYSTAL FORM AND SALT OF QUINAZOLINE COMPOUND AND PREPARATION METHOD THEREOF” (SHENZHEN JINRUI FOUNDATION BIOTECH CO., LTD, priority 2019, published 2022).

Experiments:
[1] = Solid stability assay (XRPD, HPLC); assay type: physicochemical
Procedure: Sample concentration: 0.5 mg/mL
According to influencing factor and accelerated assay conditions, about 5 mg of the crystal form B of the compound of formula (I) was accurately weighed and placed in a dry and clean glass bottle to form a thin layer as a formal assay sample in duplicate. The sample was placed under an influencing factor assay condition (60° C., 92.5% RH) and accelerated conditions (40° C./75% RH and 60° C./75% RH). The sample was fully exposed, and covered with aluminum foil paper punched with small holes. In addition, a small amount of sample was placed in a 40 mL glass sample bottle under the same conditions to determine the crystal state. The sample placed under light irradiation condition (1.2×10^6 Lux•hr/near ultraviolet 200 w•hr/m^2) was fully exposed at room temperature.

[2] = system: subcutaneous xenograft tumor of human gastric cancer NCI-N87 cells; assay: In vivo pharmacodynamics, NCI-N87 subcutaneous xenograft (Assay Example 4); set-up: species or system mouse; settings: 0.5 mg/kg, compared with the vehicle control group
Procedure: (§1) Purpose of the assay: in vivo efficacy of the assay compound disclosed herein on subcutaneous xenograft tumor of human gastric cancer NCI-N87 cells in a BALB/c nude mouse model was evaluated.
Animals of the assay: female BALB/c nude mice, 6-8 weeks old, weighted 18-22 grams; supplier: shanghai sippr bk laboratory animals Ltd.
(§2) Human gastric cancer NCI-N87 cells were cultured in monolayer in vitro. The culture conditions were RPMI-1640 medium plus 10% fetal bovine serum, 100 U/mL penicillin, 100 μg/mL streptomycin, 37° C., 5% CO2. The passaging was performed by conventional digestion with trypsin-EDTA twice a week. When the cell saturation was 80%-90%, the cells were collected, counted and inoculated.
0.2 mL (10×10^6) of NCI-N87 cells (PBS+Matrigel, 1:1) were inoculated subcutaneously on the right back of each mouse. […]
The assay index was to investigate whether tumor growth is inhibited, delayed or cured. Tumor diameter was measured twice a week with a vernier caliper. […]
The antitumor efficacy of the compounds was evaluated by TGI (%) or tumor proliferation rate T/C (%). […]
Statistical analysis included the mean and standard error of mean (SEM) of tumor volume at each time point in each group (See Table 14 for specific data). […] The comparison between groups was analyzed by T-test, and the comparison among three or more groups was analyzed by one-way ANOVA. […]

[3] = system: subcutaneous xenograft tumor of human gastric cancer NCI-N87 cells; assay: In vivo pharmacodynamics, NCI-N87 subcutaneous xenograft (Assay Example 3); set-up: species or system mouse; settings: 0.8 mg/kg, compared with the vehicle control group
Procedure: as §1
Animals of the assay: female BALB/c nude mice, 6-8 weeks old, weighted 18-22 grams; supplier: Shanghai Ling Chang Biotechnology Co., Ltd.
as §2, with “U/mL streptomycin and 2 mM glutamine,” for “μg/mL streptomycin,”, “by the” for “by”
0.2 mL (10×10^6) of NCI-N87 cells (PBS+Matrigel, 1:1) were inoculated subcutaneously on the right back of each nude mouse. When the average tumor volume reached 158 mm^3, administration to each group was started.
The assay compounds were formulated into 0.04 mg/mL and 0.08 mg/mL clear solution in the solvents of 10% NMP (N-methylpyrrolidone)+10% ethylene glycol stearate+80% water.
The assay index was to investigate whether tumor growth is inhibited, delayed or cured. Tumor diameter was measured twice a week with a vernier caliper. The calculation formula of tumor volume was: V=0.5a×b^2, wherein a and b represent the long and short diameters of tumor, respectively.
The antitumor efficacy of the compounds was evaluated by TGI (%) or tumor proliferation rate T/C (%). TGI (%) reflects tumor growth inhibition rate. […]
Statistical analysis included mean and standard error of mean (SEM) of tumor volume at each time point in each group (See Table 13 for specific data). […] The comparison between groups was analyzed by T-test, and the comparison among three or more groups was analyzed by one-way ANOVA. […]

[4] = system: subcutaneous xenograft tumor of human esophageal carcinoma OE21 cells; assay: In vivo pharmacodynamics, OE21 subcutaneous xenograft (Assay Example 5); set-up: species or system mouse
Procedure: Purpose of the assay: in vivo efficacy of the assay compound on subcutaneous xenograft tumor of human esophageal carcinoma OE21 cells in a BALB/c nude mouse model was evaluated.
Animals of the assay: female BALB/c nude mice, 6-8 weeks old, weighted 17-23 grams; supplier: shanghai sippr bk laboratory animals Ltd.
as §2, with “esophageal carcinoma OE21” for “gastric cancer NCI-N87”, “U/mL streptomycin and 2 mM glutamine,” for “μg/mL streptomycin,”
0.1 ml […] OE21 cells (PBS) were inoculated subcutaneously on the right back of each mouse. When the average tumor volume reached 112 mm^3, administration to each group was started.
The assay compound was formulated into a 0.15 mg/mL to 0.3 mg/mL clear or suspension solution in the solvents of 10% NMP+10% ethylene glycol stearate+80% water.
The assay index was to investigate whether tumor growth is inhibited, delayed or cured. Tumor diameter was measured twice a week with vernier caliper. The calculation formula of tumor volume was: V=0.5a×b^2, wherein a and b represent the long and short diameters of tumor, respectively.
The antitumor efficacy of the compounds was evaluated by TGI (%) or relative tumor proliferation rate T/C (%). TGI (%) reflects the tumor growth inhibition rate. TGI (%) was calculated as follows: TGI (%)=[(1−average tumor volume at the end of administration for a certain treatment group−average tumor volume at the beginning of administration for this treatment group))/(average tumor volume at the end of treatment for a vehicle control group−average tumor volume at the beginning of administration for this vehicle control group)]×100%.
Relative tumor proliferation rate T/C (%): the calculation formula was as follows: T/C (%)=average tumor volume at the end of administration for a certain treatment group/average tumor volume at the end of treatment for the vehicle control group×100%.
Statistical analysis included the mean and standard error of mean (SEM) of tumor volume at each time point in each group. One-way ANOVA was used for comparison among three or more groups. […] SPSS 17.0 was used for all data analysis. p<0.05 was considered a significant difference.

CYP1A2 = target: T1, CYP1A2 (Homo sapiens, UniProt P05177); assay: Inhibition of CYP enzyme activity in human liver microsome, CYP1A2; assay type: in vitro ADME; settings: human liver microsome
T1 construct: in the assay of CYP enzyme activity in human liver microsome; from tissue; host or cells: human liver microsome
T1 sequence (P05177 1-516): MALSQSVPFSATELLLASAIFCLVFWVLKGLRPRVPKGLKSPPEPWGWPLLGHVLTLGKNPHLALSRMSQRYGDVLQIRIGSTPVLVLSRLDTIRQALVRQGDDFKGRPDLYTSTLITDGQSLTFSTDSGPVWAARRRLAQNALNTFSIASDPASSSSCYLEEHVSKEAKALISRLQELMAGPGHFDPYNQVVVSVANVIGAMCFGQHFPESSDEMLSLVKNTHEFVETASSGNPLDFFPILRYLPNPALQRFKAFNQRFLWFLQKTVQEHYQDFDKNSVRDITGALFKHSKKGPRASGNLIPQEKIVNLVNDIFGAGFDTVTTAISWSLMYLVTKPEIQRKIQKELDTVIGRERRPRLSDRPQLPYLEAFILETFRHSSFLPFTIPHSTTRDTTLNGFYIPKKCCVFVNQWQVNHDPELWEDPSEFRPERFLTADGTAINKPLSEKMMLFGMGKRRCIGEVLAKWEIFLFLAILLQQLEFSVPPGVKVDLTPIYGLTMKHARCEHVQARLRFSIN
Description: (§3) The results of the compound disclosed herein and the reference compound Poziotinib in the assay of CYP enzyme activity in human liver microsome were shown in the following table (Table 17).

CYP3A4 = target: T2, CYP3A4 (Homo sapiens, UniProt P08684); assay: Inhibition of CYP enzyme activity in human liver microsome, CYP3A4; assay type: in vitro ADME
T2 construct: in the assay of CYP enzyme activity in human liver microsome; from tissue; host or cells: human liver microsome
Description: as §3

T2 sequence (P08684 whole entry): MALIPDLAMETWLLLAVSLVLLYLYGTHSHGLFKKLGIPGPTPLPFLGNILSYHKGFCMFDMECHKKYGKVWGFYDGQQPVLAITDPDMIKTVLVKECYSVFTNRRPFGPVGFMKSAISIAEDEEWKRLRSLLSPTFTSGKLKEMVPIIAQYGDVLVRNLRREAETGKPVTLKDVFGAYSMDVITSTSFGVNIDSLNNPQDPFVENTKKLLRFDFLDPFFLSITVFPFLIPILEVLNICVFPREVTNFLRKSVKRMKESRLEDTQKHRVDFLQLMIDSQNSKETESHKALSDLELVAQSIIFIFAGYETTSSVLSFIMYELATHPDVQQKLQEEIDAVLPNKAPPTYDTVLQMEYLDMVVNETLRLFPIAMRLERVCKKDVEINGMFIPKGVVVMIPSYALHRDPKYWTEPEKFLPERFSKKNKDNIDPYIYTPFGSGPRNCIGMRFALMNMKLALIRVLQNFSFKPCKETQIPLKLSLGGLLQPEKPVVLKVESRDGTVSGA

For C=CC(=O)N1[C@@H]2CC[C@H]1C[C@H](Nc1cc3c(Nc4ccc(Cl)c(Cl)c4F)ncnc3cc1OC)C2.O=C(O)/C=C\C(=O)O, the Total impurity content ([1]; 40° C., 75% relative humidity, open, 1 month) was 1.62%, the Total impurity content ([1]; 40° C., 75% relative humidity, open, 2 months) was 1.52% and the Total impurity content ([1]; 40° C., 75% relative humidity, open, 3 months) was 1.52%. It also gave a Total impurity content ([1]; 40° C., 75% relative humidity, open, 10 days) of 1.64%, a Total impurity content ([1]; 60° C., 75% relative humidity, open, 1 month) of 1.62% and a Total impurity content ([1]; 60° C., 75% relative humidity, open, 10 days) of 1.63%. The Total impurity content ([1]; High humidity (25° C./92.5% relative humidity, open), 5 days) was 1.65%, the Total impurity content ([1]; High humidity (25° C./92.5% relative humidity, open), 10 days) was 1.65% and the Total impurity content ([1]; High temperature (60° C., open), 5 days) was 1.64%. For the same compound, the Total impurity content ([1]; High temperature (60° C., open), 10 days) was 1.64%, the Total impurity content ([1]; Initial, 0 day) was 1.64% and the Total impurity content ([1]; Light irradiation (1.2 × 10^6 Lux · hr/near ultraviolet 200 w · hr/m^2, open), 10 days) was 1.66%. The Total impurity content ([1]; Protected from light, 10 days) was 1.64% and the “solid stability (in words)” value ([1]; conclusion over all conditions) was “good stability”.
In the case of C=CC(=O)N1CCC(Nc2cc3c(Nc4ccc(F)c(Cl)c4)ncnc3cc2OC)CC1 [Control compound 2, reference compound], the “tumor inhibitory effect (in words)” value [2] is reported as “not significant”.
With C=CC(=O)N1CCC(Oc2cc3c(Nc4ccc(Cl)c(Cl)c4F)ncnc3cc2OC)CC1 [Poziotinib, reference compound] the “tumor inhibitory effect (in words)” value [3] was “significant tumor inhibitory effect”, the “body weight and clinical signs (in words)” value ([4]; 2/1.5 mg/kg) was “varying degrees of body weight loss and dandruff” and the “tumor inhibitory effect (in words)” value ([4]; 2/1.5 mg/kg, compared with the vehicle control group) was “significant tumor inhibitory effect”. The “Tumor volume (Day 21)” value ([4]; 2/1.5 mg/kg, Day 21, Mean + SEM) was 57 ± 7 mm3, the “body weight loss of individual mice (administration discontinued)” value ([4]; 2/1.5 mg/kg, from the 6th and 7th day, 1 mouse, then 3 mice) was “more than 15%” and the “effect on the body weight of mice (in words)” value ([4]; discussion, high-dose group) was “the body weight loss of mice was significant”. For the same compound, the “dark yellow urine, suggestion of toxicity (in words)” value ([4]; mouse, in vivo) was “mice in the whole group had dark yellow urine”, the “inhibitory activity on CYP1A2 (in words)” value (CYP1A2) was “no inhibitory activity” and the “inhibitory activity on CYP3A4 (in words)” value (CYP3A4) was “no inhibitory activity”.
